According to US20250041277A1, “METHODS AND DOSING REGIMENS COMPRISING A CDK2 INHIBITOR AND A CDK4 INHIBITOR FOR TREATING CANCER” (PFIZER INC., priority 2021, published 2025):

Assays:
[1] = tested on: NCI-H1792 lung adenocarcinoma (LUAD) cells; assay: Spheroid growth inhibition (SGI) assay, NCI-H1792; type: cell-based; conditions: NCI-H1792 spheroids; 30 nM palbociclib, 300 nM PF-07220060, 300 nM PF-07104091; 14 days
Experimental: NCI-H1792 and NCI-H23 lung adenocarcinoma (LUAD) cells lines were obtained from ATCC and maintained in RPMI 1640 medium supplemented with 10% fetal bovine serum and penicillin-streptomycin as per ATCC guidelines. Cells were maintained in humidified incubator at 37° C. with 5% CO2.
Spheroid assays were performed in 96 well ultralow attachment plates (ULA-96U) from Nexcelom & Thermo Fisher Scientific. […] To aid spheroid formation, dispensed cells were centrifuged at 220×g for 6 minutes in the ultralow attachment plates and allowed to form compact spheroids for 4 days prior to the initiation of treatment. […] DMSO (0.01%) was used as the vehicle control. DMSO and all compounds were diluted in cell medium. Medium and compounds were replenished twice per week, with 3 and 4-day intervals. Replenishment was executed by aspirating 150 μL of medium per well without disturbing the spheroid and then adding the same volume of premixed medium/compound solution to spheroids. Spheroid diameter was quantified immediately following each medium change twice a week (on every 3rd or 4th day) throughout the duration of the assay.
Average diameters of tumor spheroids were plotted in GraphPad Prism 8 and the AUC calculated. AUC baseline was determined by the average tumor spheroid diameter at Day 0 in the vehicle (DMSO) controls. Spheroid growth inhibition, or SGI, was calculated as follows: SGI=(1−AUC treatment/AUC DMSO)×100%. SGI for all treatment arms was derived at the timepoint when the vehicle (DMSO) treated spheroids reach their maximal diameter (usually close to 1 mm but this can differ among cell lines); this corresponds to the last time point taken for the vehicle (DMSO) treated spheroids. SEM was calculated based on n=10 to 12 wells per test group.
Growth of lung adenocarcinoma multicellular tumor spheroids (MCTS) was monitored over time to assess: (i) amplitude of response (SGI) and (ii) duration of response to the CDK4 inhibitor PF-07220060 as a single agent, and in combination with the CDK2 inhibitor PF-07104091.

[2] = tested on: T47D breast cancer cell line; assay: Cell proliferation combination assay (Loewe Volume, CI), T47D; type: cell-based, Human; conditions: T-47D cells; for Best CI: Best CI Level 70
Experimental: The combination effects of PF-07104091 and PF-07220060 were evaluated in a cell proliferation assay with MCF7 and T47D BC cell lines.
Drug combinations were analyzed using the Dose Equivalence Principle, and the Loewe Volume score. When modeling synergy using the Dose Equivalence Principle, the Loewe Volume score for the combination compounds should be greater than the compound self-cross controls, and the Combination Index (C) score for the combination compounds should be less than compound self-cross controls. […] The isobolograms set to an anti-proliferation threshold at 70% confirmed a synergistic response.

[3] = tested on: HCC1428 breast cancer model; assay: In vivo efficacy, HR+/HER2− HCC1428 breast cancer model (Example 3); design: species or system NSG mice; conditions: HCC1428, Day 42; PO BID: PF-07104091 150 mpk, PF-07220060 60 mpk, palbociclib 10 mpk
Experimental: (§1) Female NSG mice (Jackson Lab) were subcutaneously implanted with fragment (27 mm^3 to 64 mm^3 size) into the dorsal region. All mice for T47D, HCC1428 and ST941 PBR studies were supplemented with 8.5 μg/mL estradiol water (β-Estradiol Sigma-Aldrich, cat #E2758-5G) and gave ad libitum till end of study. For the in vivo efficacy studies, tumor volume and body weights were measured twice a week. Tumor volume was calculated using the [(Length×Width×Width)/2)] formula. TGI was calculated as 100*(1−ΔT/ΔC). The ΔC (ΔT) was obtained by subtracting the mean tumor burden in the vehicle (treated) group on the first day of treatment (Day 0) from the mean tumor burden in vehicle (treated) group on the assessment day. Statistical analysis was performed using ANCOVA when the mean tumor volume in vehicle treated mice reached tumor cutoff size.
(§2) The HCC1428 model was established by implanting passage 4 tumor fragments into recipient mice. To establish the HCC1428 donor mice, tumor cells (5×10^6 cell/mouse with 50% Cultrex® Basement Membrane Matrix) were subcutaneously implanted in female NSG mice. Once reaching a range of 700 to 800 mm^3, donor tumors were subsequently transplanted into secondary recipient mice for a study expansion. […] PF-07104091 (lot 016), PF-07220060 (lot 019) and PD-0332991 (lot GR08498) were administered (PO.) BID (7 hr apart). All mice received treatment continuously until Day 42. TGI was assessed on Day 42 post first dose.

[4] = tested on: HCC1428 breast cancer model; assay: In vivo efficacy, HR+/HER2− HCC1428 breast cancer model (Example 4); design: species or system NSG mice; conditions: HCC1428, Day 42; PO BID: PF-07104091 120 mpk, PF-07220060 60 mpk, PF-06873600 30 mpk, palbociclib 10 mpk; fulvestrant 10 mpk SC
Experimental: as §1, with “HCC1428, MCF7” for “T47D, HCC1428”
as §2, with “passage 1” for “passage 4”, “(lot 022),” for “(lot 016),”, “(lot CPo126812-01-SY-5700-01), PF-06873600 (lot 022)” for “(lot 019)”, “administered (PO)” for “administered (PO.)”, “hr apart) while fulvestrant (lot 20160224-2) at 10 mg/kg, SC twice in the first week, then weekly afterwards.” for “hr apart).”

NCIH2126 = assay: Combinatorial activity in LUAD cell line NCIH2126; type: cell-based; conditions: Homo sapiens, NCI-H2126; NCIH2126, WT; single agent; read-out: (nM) s.a.
Experimental: Combinatorial activity of PF-07104091 and PF-07220060 was assessed in LUADs as single agents (s.a.) or in combination.

`COCc1cc(C(=O)Nc2cc([C@H]3CC[C@@H](OC(=O)NC(C)C)C3)[nH]n2)n(C)n1` [PF-07104091, (1R,3S)-3-[3-({[3-(methoxymethyl)-1-methyl-1H-pyrazol-5-yl]carbonyl}amino)-1H-pyrazol-5-yl]cyclopentyl propan-2-ylcarbamate] was tested, and the “SGI (%)” value [1] was 12%, the “Loewe Volume” value [2] was 0.01 and the “Best CI” value [2] was 0.95. The TGI % [3] was 95%, the TGI % [4] was 79% and the IC50 (NCIH2126) was 372 nM.

In the case of `CC(C)n1c(C(C)(C)O)nc2c(F)cc(-c3nc(N[C@@H]4CCOC[C@H]4O)ncc3Cl)cc21` [PF-07220060, 1,5-anhydro-3-({5-chloro-4-[4-fluoro-2-(2-hydroxypropan-2-yl)-1-(propan-2-yl)-1H-benzimidazol-6-yl]pyrimidin-2-yl}amino)-2,3-dideoxy-D-threo-pentitol], the “SGI (%)” value [1] is reported as 81%, the “Loewe Volume” value [2] is reported as 0.00 and the “Best CI” value [2] is reported as 0.97. The TGI % [3] was 89%, the TGI % [4] was 70% and the IC50 (NCIH2126) was 255 nM.
